As usually defined, the EC50 is the concentration needed to bring the measured effect to its halfway point.

The assay deals with THP-1 viability, CellTiter-Glo luminescence, 72 h. Description: PubChem AID 2252.

`Cc1ccc(C(OCC(O)CNCc2ccc(F)cc2)c2ccccc2)cc1` (configuration not stated): the EC50 is 13 µM.

In the case of `COc1ccc(/C=C/c2cc(-c3ccc(C)cc3)o[n+]2C)cc1`, the EC50 was 1.27 µM.

In the case of `COCCCNC(=S)NNC(=O)c1ccccn1`, the EC50 is 38 µM.

As to `O=C(Cn1nc(CNc2ccc(Cl)cc2)[n+]2c1CCCCC2)c1ccc(Br)cc1`, the EC50 was 11.2 µM.

As for `CC1(C)N=C(N)N=C(N)N1c1ccc(Oc2ccc(Cl)cc2)c(Cl)c1`, the EC50 was 2.45 µM.

Take `CCOc1ccc(Nc2nc(NCC3CCCO3)c3ccccc3n2)cc1` (configuration not stated): the EC50 was 2.28 µM.

As for `Cc1ccc(S(=O)(=O)CCC(=O)c2ccc(O)cc2O)cc1`, the EC50 is 16 µM.

With `Oc1c(CN2CCOCC2)cc(COCc2ccccc2)c2cccnc12`, the EC50 was 2.24 µM.

For the molecule `Clc1cccc(CN2CCc3c([nH]c4ccccc34)C2)c1Cl`, the EC50 is 8.82 µM.

With `COc1ccccc1C(C[N+](=O)[O-])c1c(N)n(C)c(=O)n(C)c1=O` (configuration not stated), the EC50 was 8.91 µM.

`CCCCCCCCCCC[N+](C)(C)CC/C=C1/c2ccccc2Sc2ccc(Cl)cc21`: the EC50 was 2.58 µM.

Regarding `CN(C)CC/C=C1\c2ccccc2Sc2cc(F)c(Cl)cc21`, the EC50 is 10.8 µM.

For the origin of these results see PubChem BioAssay AID2252 (Southern Research Specialized Biocontainment Screening …, 2010).
